# According to article PMC7072606, “Discrimination of Naturally-Occurring 2-Arylbenzofurans as Cyclooxygenase-2 Inhibitors: Insights into the Binding Mode and Enzymatic Inhibitory Activity” (Biomolecules, 2020):
# Biological target: T1, bovine COX-2 (Bos taurus, UniProt O62698)
# T1 sequence (O62698 18-604): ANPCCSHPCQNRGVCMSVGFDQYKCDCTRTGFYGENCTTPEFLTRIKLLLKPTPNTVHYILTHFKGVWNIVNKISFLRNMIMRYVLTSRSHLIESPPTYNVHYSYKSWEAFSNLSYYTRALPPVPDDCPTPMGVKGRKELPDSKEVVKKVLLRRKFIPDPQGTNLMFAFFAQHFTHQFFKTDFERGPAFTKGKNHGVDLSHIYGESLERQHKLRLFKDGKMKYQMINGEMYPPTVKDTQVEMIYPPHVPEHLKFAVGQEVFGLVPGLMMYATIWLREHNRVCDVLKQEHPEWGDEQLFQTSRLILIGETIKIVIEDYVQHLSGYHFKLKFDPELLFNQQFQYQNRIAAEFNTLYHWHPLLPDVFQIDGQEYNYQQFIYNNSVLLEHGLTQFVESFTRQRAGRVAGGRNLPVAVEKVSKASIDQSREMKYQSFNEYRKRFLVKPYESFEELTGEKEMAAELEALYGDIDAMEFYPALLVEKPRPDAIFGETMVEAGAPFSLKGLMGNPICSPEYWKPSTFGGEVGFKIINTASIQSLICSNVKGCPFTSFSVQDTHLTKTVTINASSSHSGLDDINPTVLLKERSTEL
# Assay: COX-2 inhibition assay, enzyme immunoassay (EIA) kit
# Type: biochemical
# Conditions: in-vitro
# Method: The ability of selected compounds to inhibit bovine COX-2 was determined using an enzyme immunoassay (EIA) kit (Cayman Chemical Company, Ann Arbor, MI, USA), according to the reported method. The activity was expressed as half-maximal inhibitory concentrations, IC50 (in μM), obtained after non-linear regression, using the program GraphPad Prism version 5.00 (GraphPad Software, San Diego, CA, USA).
substance,measurement,value
salvianolic acid B [Compound 51],IC50,10.5 µM
